Measurements reported in patent US20220184172A1, “AMPK/CASPASE-6 AXIS CONTROLS LIVER DAMAGE IN NONALCOHOLIC STEATOHEPATITIS” (The Regents of the University of California, priority 2019, published 2022).

Test system: CD-HFD-fed Flox and LAKO mice
Test: A-769662 in CD-HFD-fed Flox and LAKO mice
Type: in vivo
Settings: 25 mg/kg i.p. daily for 2 weeks
Protocol: FIGS. 13A-13I. A-769662 improves liver damage through AMPK activation in hepatocytes in NASH. C57BL/6J mice were fed with CD-HFD for 8 weeks. After 6 weeks of CD-HFD feeding, mice were intraperitoneally injected with 25 mg/kg A-769662 or vehicle daily for 2 weeks along with continuous CD-HFD feeding. FIG. 13A. Schematic diagram of experimental design. FIG. 13B-13C. Body weight (FIG. 13B) and liver weight (FIG. 13C) of indicated mice. n=7. FIG. 13D. Measurement of liver triglyceride (TG) of indicated mice. n=7. FIG. 13E. Quantification of the numbers of TUNEL-positive nuclei per field in liver sections shown in (FIG. 10B (W6), 10A). n=5-7 *, P<0.05, Student's unpaired t test. FIG. 13F-13H. Flox and LAKO mice were fed with CD-HPD for 8 weeks. After 6 weeks of CD-HFD feeding, mice were intraperitoneally injected with 25 mg/kg A-769662 or vehicle daily for 2 weeks along with continuous CD-HFD feeding. FIG. 13F. Paraffin-embedded liver sections of indicated mice were stained with TUNEL and DAPI as indicated therein; in the merged image sections, the different stains correspond to the grayscale shades as indicated in the single stained images to the left. Scale bar=50 μm. FIG. 13G. FIG. 13H. Serum ALT of indicated mice. n=4-5. *, P<0.05, two-way ANOVA. FIG. 13I. Expression of Adgre1 and Ccl2 in the liver of indicated mice. n=7. Data are shown as mean±SEM. *, P<0.05, Student's unpaired t test.
FIGS. 15A-15F. AMPK phosphorylates caspase-6 and inhibits its cleavage. FIG. 15A. Caspase-6 activity was measure in the lysates from isolated primary hepatocytes treated with vehicle or 250 μM BSA-conjugated palmitic acid (PA) or 50 ng/ml TNFα for 2 hrs. Data are shown as mean±SD. *, P<0.05, Student's unpaired t test. FIG. 15B. HepG2 cells were pretreated with 40 μM A-769662 for 1 hr, and then treated with 30 μg/ml cycloheximide (CHX) and 50 ng/ml TNFα for 2 hrs. Cell lysates were subject to immunoblot (IB) analysis. FIG. 15C. […] Quantification of IB analysis in FIG. 15D. n=3. *, P<0.05, two-way ANOVA. […] Quantification of IB analysis in FIG. 5K. n=3. […]

N#Cc1c(O)c2c(-c3ccc(-c4ccccc4O)cc3)csc2[nH]c1=O [A-769662]
procaspase-6 cleavage (liver lysates) (Flox mice): decreased | procaspase-6 phosphorylation (liver lysates) (Flox mice): significantly increased | number of apoptotic cells (TUNEL) (LAKO mice): did not decrease
